This passage reports aKd and Kd results from article PMC12429564.

In series [1] the test system is U31 (DNA, aptamer) ATCCAGAGTGACGCAGCATTTGTTTAATATGTTTTTTAATTCCCCTTGTGGTGTGTTGTGGACACGGTGGCTTAGT
As to the kind of experiment: fluorescence quenching titration, Hill fit. The note with it: 50 mM NaCl, 10 mM KCl, 5 mM MgCl2; Tris-HCl pH 7.4; 1.5 μM DOX titrated with nucleic acid; apparent; Hill n = 0.95 ± 0.04.

Series [2] concerns hh’ (DNA, duplex) CATTTAGGACCAACACAA/TTGTGTTGGTCCTAAATG
As to the kind of experiment: fluorescence quenching titration, Hill fit. The note with it: 50 mM NaCl, 10 mM KCl, 5 mM MgCl2; Tris-HCl pH 7.4; 1.5 μM DOX titrated with nucleic acid; apparent; Hill n = 0.96 ± 0.03.

Series [3] relates to ACCO GR20hh’ (DNA, aptamer) ACGCACCATTTGTTTAATATGTTTTTTAATTCCCCTTGTGGTGTGTTTCATTTAGGACCAACACAA/TTGTGTTGGTCCTAAATG
Put plainly: fluorescence quenching titration, Hill fit. The note with it: 50 mM NaCl, 10 mM KCl, 5 mM MgCl2; Tris-HCl pH 7.4; 1.5 μM DOX titrated with nucleic acid; apparent; Hill n = 1.58 ± 0.09.

For series [4], the system named is GR20 (DNA, aptamer) ACGCACCATTTGTTTAATATGTTTTTTAATTCCCCTTGTGGTGTGT
Put plainly: fluorescence quenching titration, Hill fit. The note with it: 50 mM NaCl, 10 mM KCl, 5 mM MgCl2; Tris-HCl pH 7.4; 1.5 μM DOX titrated with nucleic acid; apparent; Hill n = 1.13 ± 0.03.

The target in series [5] is T1, EGFR* (recombinant extracellular domain of human EGFR) (human, UniProt P00533 25-645). Put plainly: BLI; kon 3.7e5 M-1 s-1; koff 40e-4 s-1; BLI buffer and temperature not in the material; aptamers folded at 1 uM in PBS with 5 mM MgCl2 (95 C 5 min, slow cooling); ACCO assembled in PBS + 5 mM MgCl2 or Tris-HCl pH 7.4, 50 mM NaCl, 10 mM KCl, 5 mM MgCl2. The note with it: protein: recombinant; 18 bp duplex of S5 with 3' end of S3; GR20 part imperfect hairpin (predicted).

In series [6] the target is T1, EGFR* (recombinant extracellular domain …). As to the kind of experiment: BLI; kon 2.0e5 M-1 s-1; koff 29e-4 s-1; possibly from the authors' earlier work [36], not marked as cited in table; BLI buffer and temperature not in the material; aptamers folded at 1 uM in PBS with 5 mM MgCl2 (95 C 5 min, slow cooling); ACCO assembled in PBS + 5 mM MgCl2 or Tris-HCl pH 7.4, 50 mM NaCl, 10 mM KCl, 5 mM MgCl2. The settings on record: protein: recombinant; imperfect hairpins (predicted).

Series [7] has the same target. As to the kind of experiment: BLI; kon 4.3e5 M-1 s-1; koff 61e-4 s-1; BLI buffer and temperature not in the material; aptamers folded at 1 uM in PBS with 5 mM MgCl2 (95 C 5 min, slow cooling); ACCO assembled in PBS + 5 mM MgCl2 or Tris-HCl pH 7.4, 50 mM NaCl, 10 mM KCl, 5 mM MgCl2. The settings on record: protein: recombinant; imperfect hairpin (predicted).

Regarding `COc1cccc2c1C(=O)c1c(O)c3c(c(O)c1C2=O)C[C@@](O)(C(=O)CO)C[C@@H]3O[C@H]1C[C@H](N)[C@H](O)[C@H](C)O1`, the aKd in series [1] is listed as 47 ± 3 nM; in series [2], 124 ± 3 nM; in series [3] it was 26 ± 1 nM; in series [4], 90 ± 3 nM.

B1: ACCO GR20hh' (mixed)
DNA 1: ACGCACCATTTGTTTAATATGTTTTTTAATTCCCCTTGTGGTGTGTTTCATTTAGGACCAACACAA
DNA 2: TTGTGTTGGTCCTAAATG
In general, Kd refers to the free concentration of one partner at which half of the binding sites on the other are occupied at equilibrium, for simple one-to-one binding. For the molecule B1, the Kd in series [5] was 10.8 ± 1.4 nM.

B2: U31 (ssDNA)
DNA: ATCCAGAGTGACGCAGCATTTGTTTAATATGTTTTTTAATTCCCCTTGTGGTGTGTTGTGGACACGGTGGCTTAGT
In the case of B2, the Kd in series [6] was 15 ± 1.7 nM.
For ACGCACCATTTGTTTAATATGTTTTTTAATTCCCCTTGTGGTGTGT (ssDNA) [GR20], the Kd in series [7] was 14.2 ± 0.5 nM.
